Reference: article PMC11369432, “Study on the uptake of Gastrodin in the liver” (Heliyon, 2024)
“And” between values parts separate entries of the source, which are not always exact repeats. Equal entries are not always repeated. Structures can show the parent of a compound that is named as a salt.

Columns and labels:
[1] = test system: OCTs; experiment: Check of the OCTs inhibitor in rats with metformin hydrochloride as substrate; format: in vivo
Text: (§1) Selecting suitable substrates and inhibitors of OATPs and OCTs is crucial for the experiment. Therefore, our team also used OATPs and OCTs inhibitors. Based on the relevant literature, metformin hydrochloride was selected as the substrate of OCTs, and sodium sulfobromophthalide (BSP) was selected as the substrate of OATPs. […] Most of the previous studies used RIF as an inhibitor of OATPs and epinephrine as an inhibitor of OCTs. We detected drug concentration in blood samples and in the liver of rats. The concentration of metformin hydrochloride was detected by HPLC, and BSP was measured by enzyme-linked immunosorbent assay (ELISA).

[2] = test system: OCTs; experiment: Hepatic uptake of Gastrodin in rats after the OCTs inhibitor adrenalone (ADR group); format: in vivo, Sprague-Dawley (SD) rats
Text: (§2) The transporters involved in liver transport mainly include organic anion transport peptides (Oatps) and organic cation transporters (Octs), and these two transporters are most expressed in the liver. Therefore, this study chose Oatps and Octs as the research objects. Transport proteins affect drug efficacy and toxicity, the liver is the main organ for the metabolism of substances. […] Using the method of rats in vivo, and choose organic anion transfer peptide Oatps and organic cation transporter Octs inhibitors for the probe, after the transporters are suppressed, intravenous drip Gastrodine, drug concentrations reach homeostasis in blood drug concentration, drug absorption rate and elimination rate balance, illustrate the liver intake transporters saturated. Using HPLC determination of drug concentration in liver and blood at this time the ratio of the Kp (Kp = Css/Css drug concentration of liver blood drug concentration), and under normal circumstances (i.e., without giving inhibitors) compared to Kp, if Kp decrescent, namely that the drug transporters of the substrate. This study explore the intrinsic relationship between the uptake of Gastrodin in rat liver and the organic anion transport peptide Oatps and organic cation transporter Octs, thus preliminarily elucidating the molecular mechanism of Gastrodin uptake in the liver, provide theoretical basis for the safety of clinical combination therapy [[10], [11], [12]].
(§3) The use of experimental animals was approved by the Ethics Committee of Southwest University (Chongqing, China). We strictly followed the National and Institutional guidelines for animal protection and welfare. In total, 18 adult male Sprague-Dawley (SD) rats (SPF, weight: 150 ± 20g) were obtained from the Center of Experimental Animals, Sichuan Province People's Hospital. The rats were kept at room temperature (25 °C) with free access to food and water. They were allowed to adapt to the new environment for one week before starting induction and treatment. Following acclimatization, the experimental rats were randomly divided into three groups (n = 6) as follows: Control group (treated with Gastrodin), ADR group (treated with Gastrodin and adrenalone), and RIF group (treated with Gastrodin and rifampicin).
(§4) To clarify the role of hepatic transport proteins, the concentration of Gastrodin chosen for this experiment was 569 mg kg^−1 (converted from the concentration in mice: rat dose (mg·kg^−1) = mouse dose (mg·kg^−1)/1.44), based on the results of previous studies. An equal dose of Gastrodin was injected before intravenous drip as a loading dose, to ensure that the steady-state blood concentration (Css) of Gastrodin was reached and the transporter protein was saturated by 300 min of intravenous drip. Then, the volume of Gastrodin was computed according to the following formula: drop volume = drop speed (4 μL h^−1 g^−1) × time × weight.
(§5) Gastrodin solution: 1138.9 mg of Gastrodin extract was added to a 10 mL volumetric flask. Physiological saline was added and diluted to prepare a solution with a concentration of 113.89 mg mL^−1. Then, the solution was frozen and stored (administered at 1 mL·200g ^−1 i.v.).
Adrenalone (ADR) solution: 64 mg of […] was weighed precisely and prepared at 8 mg mL^−1 concentration (administered at 0.5 mL·200 g^−1 i.v.) using 30 % PEG400 as solvent.
(§6) The rats were fasted for 12 h before the experiment. They had free access to water. The rats were regularly weighed before the initiation of the experiment. The control group first received Gastrodin solution (569 mg kg^−1) through the caudal vein as a loading dose, followed by the caudal injection of a Gastrodin solution (569 mg kg^−1) at a rate of 4 μg h^−1·g^−1. Each rat of the RIF group was given rifampicin 2 mL·200 g^−1 via oral gavage and 1h later 569 mg kg^−1 of Gastrodin was injected. […]

[3] = Stability of Gastrodin solution (room temperature, repeated freeze-thaw); format: physicochemical; conditions: Gastrodin solution stored at −20 °C
Protocol: To verify whether the sample processing and detection methods were stable, we examined both their room temperature stability and their repeated freeze-thaw stability.
Three solutions containing 50 mg mL^−1, 100 mg mL^1, and 500 mg mL^−1 of Gastrodin were first prepared and stored at room temperature. This was then measured every 6 h. Finally, the RSD was calculated, which was examined for its room temperature stability.
Three solutions of the same concentration were prepared as described above and tested immediately after preparation. They were then stored at −20 °C for 21 h, removed to allow thawing, and left at room temperature for 3 h before assay. The test was continued at a low temperature and the RSD was calculated after repeating the assay three times to investigate its repeated freeze-thaw stability.

[4] = test system: OATPs; experiment: Hepatic uptake of Gastrodin in rats after the OATPs inhibitor rifampicin (RIF group); format: in vivo, Sprague-Dawley (SD) rats
Text: as §2, §3, §4, §5
Rifampicin (RIF) solution: 90 mg of rifampicin was precisely weighed. Then, 30 mL saline was added to prepare 3 mg mL^−1 solution (administered at 2 mL·200 g ^−1 i.g.).
as §6

[5] = parameters: method as in doi:10.4103/pm.pm_307_19; conditions: mice, different doses; conforms to a two-compartment model; cited from earlier work
[6] = Gastrodin plasma and liver concentrations and Kp in rats, control group (no inhibitor); format: in vivo, Sprague-Dawley (SD) rats
Text: as §2, §3, §4, §5
as §6, with “injected. Likewise, the ADR group was injected with adrenalone (0.5 mL·200 g^−1) via the caudal vein, and 0.5 h later 569 mg kg^−1 of Gastrodin was injected.” for “injected.”

[7] = test system: OATPs; experiment: Check of the OATPs inhibitor in rats with BSP as substrate; format: in vivo; conditions: dose of 30 mg kg^−1, ELISA
Text: as §1

For `CNCC(=O)c1ccc(O)c(O)c1` [ADR, adrenalone], the “Hepatic transportation of OCTs in rats” value ([1]; dose of 20 mg kg^−1, substrate metformin hydrochloride, HPLC) was “inhibited”.
In the case of `OCc1ccc(O[C@@H]2O[C@H](CO)[C@@H](O)[C@H](O)[C@H]2O)cc1` [GAS, hydroxyl methyl benzene - beta - D - pyran glucoside], the “KP (liver / blood concentration)” value ([2]; ADR group, single rats, 300 min) is reported as 0.0645 and 0.0324 and 0.0463 and 0.0716 and 0.0447 and 0.1550, the “Plasma concentration of GAS, 90min” value ([2]; ADR group, single rats, adrenalone 0.5 mL·200 g^−1 i.v. 0.5 h before Gastrodin 569 mg kg^−1, 90 min) is reported as 617.7201 µg/mL and 10576.3600 µg/mL and 1294.1160 µg/mL and 1093.5800 µg/mL and 3877.7610 µg/mL and the “Plasma concentration of GAS, 180min” value ([2]; ADR group, single rats, adrenalone i.v. 0.5 h before Gastrodin 569 mg kg^−1, 180 min) is reported as 650.1415 µg/mL and 3246.9130 µg/mL and 497.0489 µg/mL and 1215.3470 µg/mL and 1883.7120 µg/mL. For the same compound, the “Plasma concentration of GAS, 300min” value ([2]; ADR group, single rats, adrenalone i.v. 0.5 h before Gastrodin 569 mg kg^−1, 300 min) was 2255.8310 µg/mL and 2303.3090 µg/mL and 659.0208 µg/mL and 643.2905 µg/mL and 1871.4590 µg/mL, the “Liver concentration of GAS” value ([2]; ADR group, single rats, liver taken at 300 min) was 25.4541 µg/mL and 73.1891 µg/mL and 106.5988 µg/mL and 47.2096 µg/mL and 28.7519 µg/mL and 290.1262 µg/mL and the “Substrate of OCTs” value ([2]; concluded from lower KP after OCTs inhibitor, rat in vivo) was “likely substrate”. The Kp at 300 min ([2]; male, Sprague-Dawley, rat, liver / blood, intravenous, ADR group, n = 6, *p < 0.05 vs Control) was 0.0691 ± 0.0444, the concentration at 90 min ([2]; male, Sprague-Dawley, rat, plasma, iv, ADR group, single rats, adrenalone 0.5 mL·200 g^−1 i.v. 0.5 h before Gastrodin 569 mg kg^−1, 90 min, read-out: Plasma concentration of GAS, 90min) was 762 µg/mL and the concentration at 180 min ([2]; male, Sprague-Dawley, rat, plasma, iv, ADR group, single rats, adrenalone i.v. 0.5 h before Gastrodin 569 mg kg^−1, 180 min, read-out: Plasma concentration of GAS, 180min) was 445 µg/mL. For the same compound, the concentration at 300 min ([2]; male, Sprague-Dawley, rat, plasma, iv, ADR group, single rats, adrenalone i.v. 0.5 h before Gastrodin 569 mg kg^−1, 300 min, read-out: Plasma concentration of GAS, 300min) was 394 µg/mL, the “Storage time with good stability” value [3] was “at least 3 days” and the “KP (liver / blood concentration)” value ([4]; RIF group, single rats, 300 min) was 0.0695 and 0.1237 and 0.0037 and 0.0044 and 0.0041 and 0.0042. The “Liver concentration of GAS” value ([4]; RIF group, single rats, liver taken at 300 min) was 143.4890 µg/mL and 54.8940 µg/mL and 33.3675 µg/mL and 48.7120 µg/mL and 41.0071 µg/mL and 101.5434 µg/mL, the “Plasma concentration of GAS, 90min” value ([4]; RIF group, single rats, rifampicin 2 mL·200 g^−1 i.g. 1 h before Gastrodin 569 mg kg^−1, 90 min) was 30828.4900 µg/mL and 1684.7620 µg/mL and 8505.0480 µg/mL and 15559.1500 µg/mL and 79163.4800 µg/mL and 26044.6400 µg/mL and the “Plasma concentration of GAS, 180min” value ([4]; RIF group, single rats, rifampicin i.g. 1 h before Gastrodin 569 mg kg^−1, 180 min) was 13840.5600 µg/mL and 8435.3490 µg/mL and 24589.4100 µg/mL and 8312.9910 µg/mL and 20131.4400 µg/mL and 4501.0340 µg/mL. The “Plasma concentration of GAS, 300min” value ([4]; RIF group, single rats, rifampicin i.g. 1 h before Gastrodin 569 mg kg^−1, 300 min) was 2063.3640 µg/mL and 8969.1250 µg/mL and 10985.5800 µg/mL and 9971.0380 µg/mL and 23912.4400 µg/mL, the “Substrate of OATPs” value ([4]; concluded from lower KP after OATPs inhibitor, rat in vivo) was “likely substrate” and the Kp at 300 min ([4]; male, Sprague-Dawley, rat, liver / blood, intravenous, RIF group, n = 6, *p < 0.05 vs Control) was 0.035 ± 0.0508. The concentration at 300 min ([4]; male, Sprague-Dawley, rat, plasma, intravenous, RIF group, single rats, rifampicin i.g. 1 h before Gastrodin 569 mg kg^−1, 300 min, read-out: Plasma concentration of GAS, 300min) was 444 µg/mL, the Pharmacokinetic profile [5] was “non-linear” and the “KP (liver / blood concentration)” value ([6]; Control group, single rats, 300 min) was 0.2918 and 0.2172 and 0.0618 and 0.3204 and 0.0919. The “Plasma concentration of GAS, 90min” value ([6]; Control group, single rats, Gastrodin 569 mg kg^−1 i.v. loading dose plus i.v. drip, 90 min) was 418.6414 µg/mL and 490.4070 µg/mL and 858.0713 µg/mL and 839.0300 µg/mL and 374.1060 µg/mL and 714.8180 µg/mL, the “Plasma concentration of GAS, 180min” value ([6]; Control group, single rats, Gastrodin 569 mg kg^−1 i.v. loading dose plus i.v. drip, 180 min) was 296.4502 µg/mL and 450.2900 µg/mL and 241.1238 µg/mL and 473.1890 µg/mL and 388.0036 µg/mL and 943.8820 µg/mL and the “Plasma concentration of GAS, 300min” value ([6]; Control group, single rats, Gastrodin 569 mg kg^−1 i.v. loading dose plus i.v. drip, 300 min) was 160.2300 µg/mL and 435.3740 µg/mL and 690.0752 µg/mL and 482.2634 µg/mL and 537.2563 µg/mL and 961.3480 µg/mL. The “Liver concentration of GAS” value ([6]; Control group, single rats, liver taken at 300 min) was 46.7539 µg/mL and 94.5472 µg/mL and 42.6760 µg/mL and 154.5100 µg/mL and 49.3480 µg/mL and 165.2782 µg/mL and the Kp at 300 min ([6]; male, Sprague-Dawley, rat, liver / blood, intravenous, 569 mg kg^−1, Control group, n = 6) was 0.14 ± 0.127.
For `CO[C@H]1/C=C/O[C@@]2(C)Oc3c(C)c(O)c4c(O)c(c(/C=N/N5CCN(C)CC5)c(O)c4c3C2=O)NC(=O)/C(C)=C\C=C\[C@H](C)[C@H](O)[C@@H](C)[C@@H](O)[C@@H](C)[C@H](OC(C)=O)[C@@H]1C` [RIF, rifampicin], the “Hepatic transport of OATPs in rats” value [7] was “inhibited”.
For `CN(C)C(=N)N=C(N)N` [metformin hydrochloride], the “Hepatic concentrations of the drug after OCTs inhibitor” value ([1]; rats, OCTs inhibitor given) was “significant reduction”.
